Reference: ChEMBL document CHEMBL4177690, “(E)-3-(3,4,5-Trimethoxyphenyl)-1-(pyridin-4-yl)prop-2-en-1-one, a heterocyclic chalcone is a potent and selective CYP1A1 inhibitor and cancer chemopreventive agent” (Bioorg Med Chem Lett, 2017)

How the values were obtained:
Cytochrome P450 2C9 = Cytochrome P450 2C9 (Homo sapiens, UniProt P11712); experiment: Inhibition of recombinant human CYP2C9 expressed in HEK293 cells using 3-cyano-7-ethoxycoumarin as substrate pretreated for 30 mins followed by substrate addition measured for 60 mins by fluorescence assay; format: ADME
Cytochrome P450 2C9, sequence (P11712 whole entry): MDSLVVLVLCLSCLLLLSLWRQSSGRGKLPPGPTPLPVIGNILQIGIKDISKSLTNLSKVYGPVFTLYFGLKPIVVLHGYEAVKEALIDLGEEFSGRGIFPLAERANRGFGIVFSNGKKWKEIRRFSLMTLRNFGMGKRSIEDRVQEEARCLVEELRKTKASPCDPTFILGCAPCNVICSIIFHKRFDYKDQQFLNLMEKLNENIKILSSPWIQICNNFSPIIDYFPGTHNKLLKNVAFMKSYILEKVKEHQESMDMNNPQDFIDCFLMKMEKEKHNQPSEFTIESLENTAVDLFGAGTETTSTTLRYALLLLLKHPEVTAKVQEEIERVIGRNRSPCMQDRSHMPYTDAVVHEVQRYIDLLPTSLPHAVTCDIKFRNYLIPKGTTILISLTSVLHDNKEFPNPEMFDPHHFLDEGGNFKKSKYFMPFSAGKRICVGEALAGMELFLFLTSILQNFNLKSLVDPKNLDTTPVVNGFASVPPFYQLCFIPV

Cytochrome P450 2A6 = target: T1, Cytochrome P450 2A6 (Homo sapiens, UniProt P11509); experiment: Inhibition of human CYP2A6 expressed in yeast cells; format: ADME, cell-based
T1 sequence (P11509 whole entry): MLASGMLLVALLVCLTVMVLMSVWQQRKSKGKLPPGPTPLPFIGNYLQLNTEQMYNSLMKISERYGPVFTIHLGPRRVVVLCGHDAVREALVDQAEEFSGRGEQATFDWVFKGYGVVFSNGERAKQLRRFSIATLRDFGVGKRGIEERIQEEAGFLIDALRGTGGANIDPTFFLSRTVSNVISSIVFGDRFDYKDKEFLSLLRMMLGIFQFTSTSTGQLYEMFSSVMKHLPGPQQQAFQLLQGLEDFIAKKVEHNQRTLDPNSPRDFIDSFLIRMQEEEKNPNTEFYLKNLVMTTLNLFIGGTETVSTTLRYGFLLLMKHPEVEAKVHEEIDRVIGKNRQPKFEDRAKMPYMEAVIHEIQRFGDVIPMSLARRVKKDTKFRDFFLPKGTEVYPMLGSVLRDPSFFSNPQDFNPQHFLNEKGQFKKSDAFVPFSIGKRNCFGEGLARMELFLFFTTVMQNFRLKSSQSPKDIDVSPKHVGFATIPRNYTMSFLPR

Cytochrome P450 1B1 [1] = target: T2, Cytochrome P450 1B1 (Homo sapiens, UniProt Q16678); experiment: Inhibition of human CYP1B1 expressed in yeast microsomal membranes using 7-ethoxyresorufin as substrate measured after 10 mins by fluorescence assay; format: cell membranes
T2 sequence (Q16678 whole entry): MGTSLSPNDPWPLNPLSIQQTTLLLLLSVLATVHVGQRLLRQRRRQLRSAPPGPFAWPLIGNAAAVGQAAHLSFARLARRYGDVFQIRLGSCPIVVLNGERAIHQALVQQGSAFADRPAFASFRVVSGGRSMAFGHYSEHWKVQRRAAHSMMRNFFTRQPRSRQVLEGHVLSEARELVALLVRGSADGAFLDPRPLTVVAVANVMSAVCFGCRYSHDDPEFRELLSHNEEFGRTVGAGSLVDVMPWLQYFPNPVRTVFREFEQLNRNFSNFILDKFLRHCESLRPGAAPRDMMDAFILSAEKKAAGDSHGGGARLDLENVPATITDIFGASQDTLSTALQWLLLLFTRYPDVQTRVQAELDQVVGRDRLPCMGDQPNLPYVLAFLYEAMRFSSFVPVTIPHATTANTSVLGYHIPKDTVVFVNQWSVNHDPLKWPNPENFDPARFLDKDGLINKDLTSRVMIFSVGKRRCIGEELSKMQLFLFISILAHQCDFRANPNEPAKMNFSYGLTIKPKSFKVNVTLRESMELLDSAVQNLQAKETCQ

Cytochrome P450 1B1 [2] = target: T2, Cytochrome P450 1B1; experiment: Inhibition of recombinant human CYP1B1 expressed in HEK293 cells using 7-ethoxyresorufin as substrate pretreated for 30 mins followed by substrate addition measured for 60 mins by fluorescence assay; format: cell-based
Cytochrome P450 1A1 [3] = target: T3, Cytochrome P450 1A1 (Homo sapiens, UniProt P04798); experiment: Inhibition of recombinant human CYP1A1 expressed in HEK293 cells using 7-ethoxyresorufin as substrate pretreated for 30 mins followed by substrate addition measured for 60 mins by fluorescence assay; format: cell-based
T3 sequence (P04798 whole entry): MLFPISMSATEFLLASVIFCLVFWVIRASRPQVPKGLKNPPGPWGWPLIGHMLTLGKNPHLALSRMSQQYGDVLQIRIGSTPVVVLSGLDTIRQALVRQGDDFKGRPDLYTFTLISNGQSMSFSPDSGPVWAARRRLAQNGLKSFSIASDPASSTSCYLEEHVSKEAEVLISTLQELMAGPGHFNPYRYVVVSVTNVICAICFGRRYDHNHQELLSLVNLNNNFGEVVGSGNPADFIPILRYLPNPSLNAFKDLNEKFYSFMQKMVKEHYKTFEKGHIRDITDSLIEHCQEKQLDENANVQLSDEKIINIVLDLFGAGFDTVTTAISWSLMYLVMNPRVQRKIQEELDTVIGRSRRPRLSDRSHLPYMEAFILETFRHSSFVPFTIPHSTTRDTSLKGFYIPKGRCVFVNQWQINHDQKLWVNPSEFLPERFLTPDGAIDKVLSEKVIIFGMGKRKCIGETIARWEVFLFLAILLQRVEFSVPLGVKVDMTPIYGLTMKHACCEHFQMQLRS

Cytochrome P450 1A1 [4] = target: T3, Cytochrome P450 1A1; experiment: Competitive inhibition of human CYP1A1 using 7-ethoxyresorufin as substrate
Cytochrome P450 1B1 [5] = target: T2, Cytochrome P450 1B1; experiment: Inhibition of human CYP1B1 expressed in yeast cells; format: cell-based
Cytochrome P450 1A1 [6] = target: T3, Cytochrome P450 1A1; experiment: Inhibition of human CYP1A1 expressed in yeast microsomal membranes using 7-ethoxyresorufin as substrate measured after 10 mins by fluorescence assay; format: cell membranes
Cytochrome P450 2J2 = target: T4, Cytochrome P450 2J2 (Homo sapiens, UniProt P51589); experiment: Inhibition of human CYP2J2 expressed in yeast cells; format: ADME, cell-based
T4 sequence (P51589 whole entry): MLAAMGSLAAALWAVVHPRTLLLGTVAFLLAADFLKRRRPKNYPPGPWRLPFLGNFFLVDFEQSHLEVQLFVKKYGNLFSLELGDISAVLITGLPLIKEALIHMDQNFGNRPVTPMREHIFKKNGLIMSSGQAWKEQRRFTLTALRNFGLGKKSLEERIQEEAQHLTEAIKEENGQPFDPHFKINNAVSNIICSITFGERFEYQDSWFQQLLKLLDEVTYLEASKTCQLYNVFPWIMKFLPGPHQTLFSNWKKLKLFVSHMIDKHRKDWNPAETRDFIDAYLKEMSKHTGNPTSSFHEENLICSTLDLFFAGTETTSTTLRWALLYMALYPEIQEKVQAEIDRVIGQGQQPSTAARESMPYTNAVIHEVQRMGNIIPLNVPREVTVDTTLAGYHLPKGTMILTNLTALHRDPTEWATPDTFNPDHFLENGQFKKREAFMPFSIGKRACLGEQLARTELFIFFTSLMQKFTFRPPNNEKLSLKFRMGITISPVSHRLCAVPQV

Cytochrome P450 2D6 = Cytochrome P450 2D6 (Homo sapiens, UniProt P10635); experiment: Inhibition of recombinant human CYP2D6 expressed in HEK293 cells using 7-ethoxy-methyloxy-3-cyanocoumarin as substrate pretreated for 30 mins followed by substrate addition measured for 60 mins by fluorescence assay; format: ADME, cell-based
Cytochrome P450 2D6, sequence (P10635 whole entry): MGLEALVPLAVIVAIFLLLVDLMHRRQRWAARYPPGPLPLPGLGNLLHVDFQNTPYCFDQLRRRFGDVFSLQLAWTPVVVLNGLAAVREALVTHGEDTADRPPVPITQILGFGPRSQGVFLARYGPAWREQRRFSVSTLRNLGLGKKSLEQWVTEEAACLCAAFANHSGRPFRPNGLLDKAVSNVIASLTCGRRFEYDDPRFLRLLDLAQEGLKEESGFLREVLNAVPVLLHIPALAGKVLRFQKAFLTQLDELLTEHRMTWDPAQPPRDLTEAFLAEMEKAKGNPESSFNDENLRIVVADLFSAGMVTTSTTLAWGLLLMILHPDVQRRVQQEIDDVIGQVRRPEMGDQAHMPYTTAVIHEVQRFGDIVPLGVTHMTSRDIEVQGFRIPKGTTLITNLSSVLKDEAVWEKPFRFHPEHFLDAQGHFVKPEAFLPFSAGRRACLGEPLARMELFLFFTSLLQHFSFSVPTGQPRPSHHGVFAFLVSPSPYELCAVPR

Cytochrome P450 3A4 = Cytochrome P450 3A4 (Homo sapiens, UniProt P08684); experiment: Inhibition of human CYP3A4 expressed in yeast microsomal membranes using dibenzylfluorescein as substrate measured after 10 mins by fluorescence assay; format: ADME, cell membranes, Microsomal Membrane
Cytochrome P450 3A4, sequence (P08684 whole entry): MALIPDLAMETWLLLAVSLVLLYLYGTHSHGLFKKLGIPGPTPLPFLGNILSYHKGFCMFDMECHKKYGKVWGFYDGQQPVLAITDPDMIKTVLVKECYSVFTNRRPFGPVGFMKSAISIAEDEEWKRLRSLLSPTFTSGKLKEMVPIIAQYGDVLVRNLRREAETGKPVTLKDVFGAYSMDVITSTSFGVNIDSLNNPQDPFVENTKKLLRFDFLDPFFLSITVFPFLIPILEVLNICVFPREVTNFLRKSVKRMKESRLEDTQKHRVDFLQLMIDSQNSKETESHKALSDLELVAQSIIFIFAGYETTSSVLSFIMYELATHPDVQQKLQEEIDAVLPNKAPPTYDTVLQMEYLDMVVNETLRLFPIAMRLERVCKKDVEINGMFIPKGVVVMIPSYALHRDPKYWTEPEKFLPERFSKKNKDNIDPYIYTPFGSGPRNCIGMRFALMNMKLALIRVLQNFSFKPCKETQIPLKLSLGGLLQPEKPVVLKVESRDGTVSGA

Cytochrome P450 1A1 [7] = target: T3, Cytochrome P450 1A1; experiment: Inhibition of human CYP1A1 expressed in yeast cells; format: cell-based

IC50 (Cytochrome P450 2C9): > 10 µM | IC50 (Cytochrome P450 2A6): > 10 µM | IC50 (Cytochrome P450 1B1 [1]): 5.21 µM | IC50 (Cytochrome P450 1B1 [2]): 8.18 µM | IC50 (Cytochrome P450 1A1 [3]): 0.058 µM | Ki (Cytochrome P450 1A1 [4]): 0.28 µM | IC50 (Cytochrome P450 1B1 [5]): 6.12 µM | IC50 (Cytochrome P450 1A1 [6]): 0.061 µM | IC50 (Cytochrome P450 2J2): > 20 µM | IC50 (Cytochrome P450 2D6): > 10 µM | IC50 (Cytochrome P450 3A4): > 20 µM | IC50 (Cytochrome P450 1A1 [7]): 0.15 µM
Structure (SMILES): COc1cc(/C=C/C(=O)c2ccncc2)cc(OC)c1OC
